Test results taken from the NIST ThermoML archive (doi:10.1021/je0502647).
Numbers after ± are expanded uncertainties.

Experiment: activity coefficient (dimensionless); of the first substance listed, at infinite dilution; xn = mol fraction of the nth substance listed
Settings: Liquid, gas stripping method, x1 = 0

SMILES	activity coefficient (249.94 K)	activity coefficient (270.06 K)	activity coefficient (289.99 K)	activity coefficient (309.98 K)	activity coefficient (329.99 K)	activity coefficient (250 K)	activity coefficient (270.01 K)	activity coefficient (310 K)	activity coefficient (270 K)	activity coefficient (249.98 K)
CC(F)F [1,1-difluoroethane] + C=CCO	5.09 ± 0.15	4.94 ± 0.15	4.68 ± 0.14	4.39 ± 0.13	4.02 ± 0.12					
C=CC=C [1,3-butadiene] + C=CCO			4.02 ± 0.12		3.59 ± 0.11	4.12 ± 0.12	4.06 ± 0.12	3.89 ± 0.12		
C=CCC [1-butene] + C=CCO	6.08 ± 0.18		5.62 ± 0.17		5.04 ± 0.15		5.85 ± 0.18	5.35 ± 0.16		
CC(C)C [2-methylpropane] + C=CCO	10.5 ± 0.3		8.83 ± 0.26		7.14 ± 0.21		9.51 ± 0.29	8.11 ± 0.24		
C/C=C/C [(E)-2-butene] + C=CCO			5.67 ± 0.17		4.91 ± 0.15	6.23 ± 0.19		5.38 ± 0.16	5.85 ± 0.18	
C/C=C\C [(Z)-2-butene] + C=CCO	5.53 ± 0.17	5.28 ± 0.16	5.06 ± 0.15	4.85 ± 0.15	4.57 ± 0.14					
CCCC [butane] + C=CCO			8.2 ± 0.25		6.79 ± 0.2		8.84 ± 0.27	7.58 ± 0.23		9.71 ± 0.29
CCCl [chloroethane] + C=CCO	3.09 ± 0.09	3.07 ± 0.09	2.99 ± 0.09	2.87 ± 0.09	2.69 ± 0.08					
COC [dimethyl ether] + C=CCO	1.23 ± 0.04	1.22 ± 0.04	1.2 ± 0.04	1.2 ± 0.04	1.16 ± 0.04					
